# According to patent publication US20250115620A1, “BRIDGED TRICYCLIC CARBAMOYLPYRIDONE COMPOUNDS AND USES THEREOF” (Gilead Sciences, Inc., priority 2022, published 2025):
# Where two headings read alike, the source gives them in different places.
# How the values were obtained:
# HIV-1 (IIIB) = assay: microbe, parasite or virus in culture; assay type: cell-based; settings: Human immunodeficiency virus 1, IIIB, MT4, 120 h, read-out: MT4 EC50
# in vitro = settings: human, uninfected MT-4 cells
# pLAI reporter virus = assay: microbe, parasite or virus in culture; assay type: cell-based, HIV; settings: Human immunodeficiency virus 1, MT4, 72 h
# [1] = HIV-1 (IIIB) in MT-4 cells, 5 days incubation, Cell Titer Glo
compound,measurement,setting,value
"C[C@H]1CC[C@]2(CC=NO2)[C@H]2CN1C(=O)c1c(O)c(=O)c(C(=O)NCc3c(F)cc(F)cc3F)cn12 [Example 72, (3′S,5S,7′R)-12′-hydroxy-3′-methyl-1′,11′-dioxo-N-(2,4,6-trifluorobenzyl)-1′,4′,5′,11′-tetrahydro-3′H,4H,7′H-spiro[isoxazole-5,6′-[2,7]methanopyrido[1,2-a][1,4]diazonine]-10′-carboxamide]",EC50,HIV-1 (IIIB); [1],1.2 nM
same,CC50 at 5 days,in vitro,31900 nM
same,EC50,pLAI reporter virus; read-out: RLUC 50% HS EC50,108 nM
same,EC50,pLAI reporter virus; read-out: RLUC CCM EC50,0.3 nM
"C[C@H]1CC[C@]2(CC(C(F)(F)F)=NO2)[C@H]2CN1C(=O)c1c(O)c(=O)c(C(=O)NCc3c(F)cc(F)cc3F)cn12 [Example 73, (3′S,5S,7′R)-12′-hydroxy-3′-methyl-1′,11′-dioxo-N-(2,4,6-trifluorobenzyl)-3-(trifluoromethyl)-1′,4′,5′,11′-tetrahydro-3′H,4H,7′H-spiro[isoxazole-5,6′-[2,7]methanopyrido[1,2-a][1,4]diazonine]-10′-carboxamide]",EC50,HIV-1 (IIIB); [1],1.1 nM
same,CC50 at 5 days,in vitro,31200 nM
same,EC50,pLAI reporter virus; read-out: RLUC 50% HS EC50,65.2 nM
same,EC50,pLAI reporter virus; read-out: RLUC CCM EC50,0.2 nM
"C[C@H]1CC[C@]2(CC(N3CCC3)=NO2)[C@H]2CN1C(=O)c1c(O)c(=O)c(C(=O)NCc3c(F)cc(F)cc3F)cn12 [Example 74, (3′S,5S,7′R)-3-(azetidin-1-yl)-12′-hydroxy-3′-methyl-1′,11′-dioxo-N-(2,4,6-trifluorobenzyl)-1′,4′,5′,11′-tetrahydro-3′H,4H,7′H-spiro[isoxazole-5,6′-[2,7]methanopyrido[1,2-a][1,4]diazonine]-10′-carboxamide]",EC50,HIV-1 (IIIB),2.1 nM
same,CC50 at 5 days,in vitro,22300 nM
same,EC50,pLAI reporter virus; read-out: RLUC 50% HS EC50,4.9 nM
same,EC50,pLAI reporter virus; read-out: RLUC CCM EC50,0.4 nM
"C[C@H]1CC[C@]2(CC(N3CCCC3)=NO2)[C@H]2CN1C(=O)c1c(O)c(=O)c(C(=O)NCc3c(F)cc(F)cc3F)cn12 [Example 75, (3′S,5S,7′R)-12′-hydroxy-3′-methyl-1′,11′-dioxo-3-(pyrrolidin-1-yl)-N-(2,4,6-trifluorobenzyl)-1′,4′,5′,11′-tetrahydro-3′H,4H,7′H-spiro[isoxazole-5,6′-[2,7]methanopyrido[1,2-a][1,4]diazonine]-10′-carboxamide]",EC50,HIV-1 (IIIB); [1],1.8 nM
same,CC50 at 5 days,in vitro,14100 nM
same,EC50,pLAI reporter virus; read-out: RLUC 50% HS EC50,1.8 nM
same,EC50,pLAI reporter virus; read-out: RLUC CCM EC50,0.3 nM
"C[C@H]1CC[C@]2(CC(n3cnnc3)=NO2)[C@H]2CN1C(=O)c1c(O)c(=O)c(C(=O)NCc3c(F)cc(F)cc3F)cn12 [Example 76, (3′S,5S,7′R)-12′-hydroxy-3′-methyl-1′,11′-dioxo-3-(4H-1,2,4-triazol-4-yl)-N-(2,4,6-trifluorobenzyl)-1′,4′,5′,11′-tetrahydro-3′H,4H,7′H-spiro[isoxazole-5,6′-[2,7]methanopyrido[1,2-a][1,4]diazonine]-10′-carboxamide]",EC50,HIV-1 (IIIB); [1],2.2 nM
same,CC50 at 5 days,in vitro,10100 nM
same,EC50,pLAI reporter virus; read-out: RLUC 50% HS EC50,3.3 nM
same,EC50,pLAI reporter virus; read-out: RLUC CCM EC50,0.4 nM
"C[C@H]1CC[C@]2(CC(n3cccn3)=NO2)[C@H]2CN1C(=O)c1c(O)c(=O)c(C(=O)NCc3c(F)cc(F)cc3F)cn12 [Example 77, (3′S,5S,7′R)-12′-hydroxy-3′-methyl-1′,11′-dioxo-3-(1H-pyrazol-1-yl)-N-(2,4,6-trifluorobenzyl)-1′,4′,5′,11′-tetrahydro-3′H,4H,7′H-spiro[isoxazole-5,6′-[2,7]methanopyrido[1,2-a][1,4]diazonine]-10′-carboxamide]",EC50,HIV-1 (IIIB); [1],2.9 nM
same,CC50 at 5 days,in vitro,1480 nM
same,EC50,pLAI reporter virus; read-out: RLUC 50% HS EC50,17.7 nM
same,EC50,pLAI reporter virus; read-out: RLUC CCM EC50,0.5 nM
"C[C@H]1CC[C@]2(CC(C#CC(C)(C)S(C)(=O)=O)=NO2)[C@H]2CN1C(=O)c1c(O)c(=O)c(C(=O)NCc3c(F)cc(F)cc3F)cn12 [Example 79, (3′S,5S,7′R)-12′-hydroxy-3′-methyl-3-(3-methyl-3-(methylsulfonyl)but-1-yn-1-yl)-1′,11′-dioxo-N-(2,4,6-trifluorobenzyl)-1′,4′,5′,11′-tetrahydro-3′H,4H,7′H-spiro[isoxazole-5,6′-[2,7]methanopyrido[1,2-a][1,4]diazonine]-10′-carboxamide]",EC50,HIV-1 (IIIB); [1],4.8 nM
same,CC50 at 5 days,in vitro,≥ 50000 nM
same,EC50,pLAI reporter virus; read-out: RLUC 50% HS EC50,1.4 nM
same,EC50,pLAI reporter virus; read-out: RLUC CCM EC50,1 nM
"C[C@H]1CC[C@@]2(CC(C#CC(C)(C)S(C)(=O)=O)=NO2)[C@H]2CN1C(=O)c1c(O)c(=O)c(C(=O)NCc3c(F)cc(F)cc3F)cn12 [Example 80, (3′S,5R,7′R)-12′-hydroxy-3′-methyl-3-(3-methyl-3-(methylsulfonyl)but-1-yn-1-yl)-1′,11′-dioxo-N-(2,4,6-trifluorobenzyl)-1′,4′,5′,11′-tetrahydro-3′H,4H,7′H-spiro[isoxazole-5,6′-[2,7]methanopyrido[1,2-a][1,4]diazonine]-10′-carboxamide]",EC50,HIV-1 (IIIB); [1],81.5 nM
same,CC50 at 5 days,in vitro,≥ 50000 nM
same,EC50,pLAI reporter virus; read-out: RLUC 50% HS EC50,30.1 nM
same,EC50,pLAI reporter virus; read-out: RLUC CCM EC50,15.7 nM
"C[C@H]1CC[C@]2(CC(C#CC(C)(C)O)=NO2)[C@H]2CN1C(=O)c1c(O)c(=O)c(C(=O)NCc3c(F)cc(F)cc3F)cn12 [Example 81, (3′S,5S,7′R)-12′-hydroxy-3-(3-hydroxy-3-methylbut-1-yn-1-yl)-3′-methyl-1′,11′-dioxo-N-(2,4,6-trifluorobenzyl)-1′,4′,5′,11′-tetrahydro-3′H,4H,7′H-spiro[isoxazole-5,6′-[2,7]methanopyrido[1,2-a][1,4]diazonine]-10′-carboxamide]",EC50,HIV-1 (IIIB); [1],2.1 nM
same,CC50 at 5 days,in vitro,19600 nM
same,EC50,pLAI reporter virus; read-out: RLUC 50% HS EC50,0.6 nM
same,EC50,pLAI reporter virus; read-out: RLUC CCM EC50,0.5 nM
"C[C@H]1CC[C@]2(CC(F)=NO2)[C@H]2CN1C(=O)c1c(O)c(=O)c(C(=O)NCc3c(F)cc(F)cc3F)cn12 [Example 82, (3′S,5S,7′R)-3-fluoro-12′-hydroxy-3′-methyl-1′,11′-dioxo-N-(2,4,6-trifluorobenzyl)-1′,4′,5′,11′-tetrahydro-3′H,4H,7′H-spiro[isoxazole-5,6′-[2,7]methanopyrido[1,2-a][1,4]diazonine]-10′-carboxamide]",EC50,HIV-1 (IIIB); [1],7.1 nM
same,CC50 at 5 days,in vitro,5460 nM
same,EC50,pLAI reporter virus; read-out: RLUC 50% HS EC50,186 nM
same,EC50,pLAI reporter virus; read-out: RLUC CCM EC50,1.3 nM
"[2H]C1C(OC)=NO[C@@]12CC[C@H](C)N1C[C@H]2n2cc(C(=O)NCc3c(F)cc(F)cc3F)c(=O)c(O)c2C1=O (stereo partly drawn) [Example 83, (3′S,5S,7′R)-12′-hydroxy-3-methoxy-3′-methyl-1′,11′-dioxo-N-(2,4,6-trifluorobenzyl)-1′,4′,5′,11′-tetrahydro-3′H,4H,7′H-spiro[isoxazole-5,6′-[2,7]methanopyrido[1,2-a][1,4]diazonine]-4-d-10′-carboxamide]",EC50,HIV-1 (IIIB); [1],2.3 nM
same,CC50 at 5 days,in vitro,16200 nM
same,EC50,pLAI reporter virus; read-out: RLUC 50% HS EC50,41.1 nM
same,EC50,pLAI reporter virus; read-out: RLUC CCM EC50,0.3 nM
"COC1=NO[C@@]2(CC[C@H](C)N3C[C@H]2n2cc(C(=O)NCc4c(F)cc(F)cc4F)c(=O)c(O)c2C3=O)[C@H]1O [Example 84, (3′S,4R,5R,7′R)-4,12′-dihydroxy-3-methoxy-3′-methyl-1′,11′-dioxo-N-(2,4,6-trifluorobenzyl)-1′,4′,5′,11′-tetrahydro-3′H,4H,7′H-spiro[isoxazole-5,6′-[2,7]methanopyrido[1,2-a][1,4]diazonine]-10′-carboxamide]",EC50,HIV-1 (IIIB); [1],1.6 nM
same,CC50 at 5 days,in vitro,25800 nM
same,EC50,pLAI reporter virus; read-out: RLUC 50% HS EC50,22.3 nM
same,EC50,pLAI reporter virus; read-out: RLUC CCM EC50,0.3 nM
